Experimental data as given in patent EP0068408A1 (priority 1981, dated 1983).
Values after ≈ are worked out from the molar mass of the structure shown. Like-named read-outs stand apart in the source and are kept apart here.

How the values were obtained:
Influenza A1 = assay: microbe, parasite or virus in culture; type: cell-based
Rhino = assay: microbe, parasite or virus in culture; type: cell-based
Parainfluenza Type 3 = assay: microbe, parasite or virus in culture; type: cell-based; details: virus E = Parainfluenza Type 3
[1] = Acute toxicity in mice (LD50); type: in vivo; details: ddY male mice, suspended in 5% Arabic gum solution, observed for 7 days; for LD50 at 168 h: mouse, in vivo
Protocol: Experimental Example 7: Acute Toxicity in Mice
Each compound of the invention was suspended in 5% Arabic gum solution and given orally (p.o.) or intraperitoneally (i.p.) to groups of ten ddY male mice weighed from 24 to 26 g at the dosage volume of 10 ml/kg. […] LD50 was determined according to the method of Wilcoxon and Litchfield.

Influenza A0 = assay: microbe, parasite or virus in culture; type: cell-based; details: virus A = Influenza A0, MDCK, Vero and HEL cells, 2 or 3 days
influenza A0 virus = assay: animal or person; type: in vivo, mice; details: for responders at 100 mg/kg / responders at 300 mg/kg / responders at 10 mg/kg / responders at 30 mg/kg: Mus musculus, 360 h, twice a day for 14 days, survivors at 15th day, read-out: Survival rate; for protective action against death due to the infection: result in words, Tables 3 and 4
ECHO = assay: microbe, parasite or virus in culture; type: cell-based
Coxsackie Type B5 = assay: microbe, parasite or virus in culture; type: cell-based; details: virus G = Coxsackie Type B5
Influenza B = assay: microbe, parasite or virus in culture; type: cell-based
influenza virus B/GL = assay: animal or person; type: in vivo, mice; details: unidentified influenza virus, in Mus musculus, po, 360 h, read-out: Survival rate
influenza virus A/WSN = assay: animal or person; type: in vivo, mice; details: in Mus musculus, 360 h, read-out: Survival rate
[2] = ip, i.p., read-out: LD50 value, Intraperitoneal administration
[3] = po, p.o., read-out: LD50 value, Oral administration

Structure (SMILES) | MIC (Influenza A1) | MIC (Rhino) | MIC (Parainfluenza Type 3) | LD50 at 168 h [1, 2] | LD50 at 168 h [1, 3] | MIC (Influenza A0) | responders at 300 mg/kg (influenza A0 virus; oral) | MIC (ECHO) | MIC (Coxsackie Type B5) | MIC (Influenza B) | responders at 100 mg/kg (influenza A0 virus; ip, intraperitoneal) | further results
NNS(=O)(=O)c1cc(C(=O)O)ccc1Cl [Compound 7] | 300 µg/mL (≈ 1200 µM) | 300 µg/mL (≈ 1200 µM) | 300 µg/mL (≈ 1200 µM) | 746 mg/kg | > 3000 mg/kg | 10 µg/mL (≈ 39.9 µM) | 60% | 300 µg/mL (≈ 1200 µM) | 300 µg/mL (≈ 1200 µM) | 100 µg/mL (≈ 399 µM) | – | responders at 100 mg/kg (influenza A0 virus; oral): 40%; responders at 10 mg/kg (influenza A0 virus; ip, intraperitoneal): 30%; responders at 30 mg/kg (influenza A0 virus; ip, intraperitoneal): 50%; protective action against death due to the infection (influenza A0 virus): extremely excellent activity
O=C(O)c1ccc(Cl)c(S(=O)(=O)NNc2ccc(Cl)nn2)c1 [Compound 10] | 300 µg/mL (≈ 826 µM) | 300 µg/mL (≈ 826 µM) | 300 µg/mL (≈ 826 µM) | > 1000 mg/kg | > 3000 mg/kg | 30 µg/mL (≈ 82.6 µM) | 40% | 100 µg/mL (≈ 275 µM) | 300 µg/mL (≈ 826 µM) | 300 µg/mL (≈ 826 µM) | 40% | –
O=C(O)c1ccc(Cl)c(S(=O)(=O)N2CCCC2)c1 [Compound 12] | 300 µg/mL (≈ 1040 µM) | 300 µg/mL (≈ 1040 µM) | 300 µg/mL (≈ 1040 µM) | > 1000 mg/kg | > 3000 mg/kg | 30 µg/mL (≈ 104 µM) | 40% | 300 µg/mL (≈ 1040 µM) | 100 µg/mL (≈ 345 µM) | 300 µg/mL (≈ 1040 µM) | 40% | –
CN1CCN(S(=O)(=O)c2cc(C(=O)O)ccc2Cl)CC1 [Compound 13] | 100 µg/mL (≈ 314 µM) | 300 µg/mL (≈ 941 µM) | 300 µg/mL (≈ 941 µM) | > 1000 mg/kg | > 3000 mg/kg | 10 µg/mL (≈ 31.4 µM) | 70% | 300 µg/mL (≈ 941 µM) | 100 µg/mL (≈ 314 µM) | 100 µg/mL (≈ 314 µM) | – | responders at 100 mg/kg (influenza A0 virus; oral): 50%; responders at 10 mg/kg (influenza A0 virus; ip, intraperitoneal): 40%; responders at 30 mg/kg (influenza A0 virus; ip, intraperitoneal): 50%; protective action against death due to the infection (influenza A0 virus): extremely excellent activity
Nc1cc(Cl)c(S(N)(=O)=O)cc1C(=O)O [Compound 14] | 100 µg/mL (≈ 399 µM) | 300 µg/mL (≈ 1200 µM) | 300 µg/mL (≈ 1200 µM) | > 1000 mg/kg | > 3000 mg/kg | 30 µg/mL (≈ 120 µM) | 50% | 300 µg/mL (≈ 1200 µM) | 300 µg/mL (≈ 1200 µM) | 300 µg/mL (≈ 1200 µM) | 40% | –
NS(=O)(=O)c1cc(C(=O)O)cc([N+](=O)[O-])c1Cl [Compound 15] | 300 µg/mL (≈ 1070 µM) | 300 µg/mL (≈ 1070 µM) | 300 µg/mL (≈ 1070 µM) | > 1000 mg/kg | > 3000 mg/kg | 30 µg/mL (≈ 107 µM) | 50% | 100 µg/mL (≈ 356 µM) | 300 µg/mL (≈ 1070 µM) | 300 µg/mL (≈ 1070 µM) | 50% | –
NS(=O)(=O)c1cc(C(=O)O)c(F)cc1Cl [Compound 16] | 300 µg/mL (≈ 1180 µM) | 300 µg/mL (≈ 1180 µM) | 300 µg/mL (≈ 1180 µM) | > 1000 mg/kg | > 3000 mg/kg | 30 µg/mL (≈ 118 µM) | 50% | 300 µg/mL (≈ 1180 µM) | 30 µg/mL (≈ 118 µM) | 300 µg/mL (≈ 1180 µM) | 50% | –
NS(=O)(=O)c1cc(C(=O)O)c(Cl)cc1F [Compound 17] | 300 µg/mL (≈ 1180 µM) | 300 µg/mL (≈ 1180 µM) | 300 µg/mL (≈ 1180 µM) | > 1000 mg/kg | > 3000 mg/kg | 30 µg/mL (≈ 118 µM) | 40% | 300 µg/mL (≈ 1180 µM) | 300 µg/mL (≈ 1180 µM) | 300 µg/mL (≈ 1180 µM) | 40% | –
NS(=O)(=O)c1cc(C(=O)O)c(Br)cc1Cl [Compound 18] | 300 µg/mL (≈ 954 µM) | 300 µg/mL (≈ 954 µM) | 300 µg/mL (≈ 954 µM) | > 1000 mg/kg | > 3000 mg/kg | 30 µg/mL (≈ 95.4 µM) | 70% | 3 µg/mL (≈ 9.54 µM) | 30 µg/mL (≈ 95.4 µM) | 300 µg/mL (≈ 954 µM) | 70% | responders at 100 mg/kg (influenza A0 virus; oral): 50%; responders at 30 mg/kg (influenza A0 virus; ip, intraperitoneal): 50%; protective action against death due to the infection (influenza A0 virus): extremely excellent activity
NS(=O)(=O)c1cc(C(=O)O)cc(Cl)c1Cl [Compound 20] | 100 µg/mL (≈ 370 µM) | 30 µg/mL (≈ 111 µM) | 30 µg/mL (≈ 111 µM) | > 1000 mg/kg | > 3000 mg/kg | 10 µg/mL (≈ 37 µM) | 80% | 100 µg/mL (≈ 370 µM) | 300 µg/mL (≈ 1110 µM) | 100 µg/mL (≈ 370 µM) | 70% | responders at 30 mg/kg (influenza A0 virus; oral): 40%; responders at 100 mg/kg (influenza A0 virus; oral): 60%; responders at 10 mg/kg (influenza A0 virus; ip, intraperitoneal): 40%; responders at 30 mg/kg (influenza A0 virus; ip, intraperitoneal): 60%; protective action against death due to the infection (influenza A0 virus): extremely excellent activity
N=C(N)NS(=O)(=O)c1cc(C(=O)O)c(Cl)cc1Cl [Compound 21] | 300 µg/mL (≈ 961 µM) | 100 µg/mL (≈ 320 µM) | 300 µg/mL (≈ 961 µM) | 987 mg/kg | > 3000 mg/kg | 100 µg/mL (≈ 320 µM) | 50% | 300 µg/mL (≈ 961 µM) | 300 µg/mL (≈ 961 µM) | 300 µg/mL (≈ 961 µM) | 40% | –
N=C(N)NNS(=O)(=O)c1cc(C(=O)O)c(Cl)cc1Cl [Compound 22] | 300 µg/mL (≈ 917 µM) | 300 µg/mL (≈ 917 µM) | 300 µg/mL (≈ 917 µM) | > 1000 mg/kg | > 3000 mg/kg | 100 µg/mL (≈ 306 µM) | 40% | 100 µg/mL (≈ 306 µM) | 300 µg/mL (≈ 917 µM) | 300 µg/mL (≈ 917 µM) | 40% | –
NC(=O)NNS(=O)(=O)c1cc(C(=O)O)c(Cl)cc1Cl [Compound 23] | 300 µg/mL (≈ 914 µM) | 300 µg/mL (≈ 914 µM) | 100 µg/mL (≈ 305 µM) | > 1000 mg/kg | > 3000 mg/kg | 100 µg/mL (≈ 305 µM) | 40% | 300 µg/mL (≈ 914 µM) | 300 µg/mL (≈ 914 µM) | 300 µg/mL (≈ 914 µM) | 40% | –
NC(=O)C(=O)NNS(=O)(=O)c1cc(C(=O)O)c(Cl)cc1Cl [Compound 24] | 300 µg/mL (≈ 842 µM) | 100 µg/mL (≈ 281 µM) | 300 µg/mL (≈ 842 µM) | > 1000 mg/kg | > 3000 mg/kg | 100 µg/mL (≈ 281 µM) | 50% | 300 µg/mL (≈ 842 µM) | 300 µg/mL (≈ 842 µM) | 300 µg/mL (≈ 842 µM) | 40% | –
NS(=O)(=O)c1cc(Cl)cc(C(=O)O)c1 [Compound 25] | 300 µg/mL (≈ 1270 µM) | 300 µg/mL (≈ 1270 µM) | 300 µg/mL (≈ 1270 µM) | > 1000 mg/kg | > 3000 mg/kg | 30 µg/mL (≈ 127 µM) | 50% | 300 µg/mL (≈ 1270 µM) | 300 µg/mL (≈ 1270 µM) | 100 µg/mL (≈ 424 µM) | 40% | –
NS(=O)(=O)c1cc(Br)cc(C(=O)O)c1 [Compound 26] | 300 µg/mL (≈ 1070 µM) | 300 µg/mL (≈ 1070 µM) | 300 µg/mL (≈ 1070 µM) | > 1000 mg/kg | > 3000 mg/kg | 30 µg/mL (≈ 107 µM) | 50% | 100 µg/mL (≈ 357 µM) | 300 µg/mL (≈ 1070 µM) | 300 µg/mL (≈ 1070 µM) | 40% | –
NS(=O)(=O)c1ccc(Cl)cc1C(=O)O [Compound 27] | 300 µg/mL (≈ 1270 µM) | 100 µg/mL (≈ 424 µM) | 300 µg/mL (≈ 1270 µM) | > 1000 mg/kg | > 3000 mg/kg | 30 µg/mL (≈ 127 µM) | 40% | 300 µg/mL (≈ 1270 µM) | 300 µg/mL (≈ 1270 µM) | 100 µg/mL (≈ 424 µM) | 40% | –
CC(C)OC(=O)c1ccc(Br)c(S(N)(=O)=O)c1 [Compound 29] | – | – | – | – | – | – | – | – | – | – | – | LD50 value, Intraperitoneal administration ([1]; i.p.): >1,000 mg/kg; LD50 value, Oral administration ([1]; p.o.): >3,000 mg/kg; responders at 100 mg/kg (influenza virus B/GL): 30%; responders at 300 mg/kg (influenza virus B/GL): 40%
COC(=O)c1cc(S(N)(=O)=O)c(Cl)cc1Cl [Compound 31] | – | – | – | > 1000 mg/kg | > 3000 mg/kg | – | – | – | – | – | – | responders at 100 mg/kg (influenza virus A/WSN; po): 40%; responders at 300 mg/kg (influenza virus A/WSN; po): 50%; responders at 100 mg/kg (influenza virus B/GL): 40%; responders at 300 mg/kg (influenza virus B/GL): 50%
CCCOC(=O)c1cc(S(N)(=O)=O)c(Cl)cc1Cl [Compound 33] | – | – | – | > 1000 mg/kg | > 3000 mg/kg | – | – | – | – | – | – | responders at 30 mg/kg (influenza virus A/WSN; ip): 40%; responders at 100 mg/kg (influenza virus A/WSN; ip): 50%; responders at 100 mg/kg (influenza virus A/WSN; po): 50%; responders at 300 mg/kg (influenza virus A/WSN; po): 60%; responders at 100 mg/kg (influenza virus B/GL): 40%; responders at 300 mg/kg (influenza virus B/GL): 50%
COC(=O)c1cc(S(N)(=O)=O)c(Cl)cc1F [Compound 41] | – | – | – | > 1000 mg/kg | > 3000 mg/kg | – | – | – | – | – | – | responders at 30 mg/kg (influenza virus A/WSN; ip): 30%; responders at 100 mg/kg (influenza virus A/WSN; ip): 50%; responders at 100 mg/kg (influenza virus B/GL): 30%; responders at 300 mg/kg (influenza virus B/GL): 50%
